Reference: patent US9708267B2, “Activators of human pyruvate kinase” (The United States of America, as represented by the …, priority 2010, dated 2017)
Read-outs that look alike come from different tables or passages of the source.

Biological target: hPK, M2 (Homo sapiens, UniProt P14618)
Test: luminescent pyruvate kinase-luciferase coupled assay (qHTS)
Assay type: biochemical
Conditions: mean of three replicate experiments; for AC50: 0.1 mM ADP, 0.5 mM PEP, read-out: hPK, M2 AC50; for activation at 57 µM: % activation at 57 μM of compound, read-out: hPK, M2 Max. Res.
Method: AC50 values were determined utilizing the luminescent pyruvate kinase-luciferase coupled assay (Inglese, J. et al, Quantitative high-throughput screening: a titration-based approach that efficiently identifies biological activities in large chemical libraries. Proc. Natl. Acad. Sci. U.S.A. 2006, 103, 11473-11478).
Luminescent Pyruvate Kinase-Luciferase Coupled Assay.
Production of a luminescent signal based on the generation of ATP by pyruvate kinase was determined by using the ATP-dependent enzyme firefly luciferase. Three μL of substrate mix (at r.t.) in assay buffer (50 mM imidazole pH 7.2, 50 mM KCl, 7 mM MgCl2, 0.01% tween 20, 0.05% BSA) was dispensed into Kalypsys (San Diego, Calif., USA) white solid bottom 1,536 well microtiter plates using a bottle-valve solenoid-based dispenser (Kalypsys). The final concentrations of substrates in the assay were 0.1 mM ADP and 0.5 mM PEP. Twenty-three nL of compound in DMSO were delivered with a 1,536-pin array tool, and 1 μL of enzyme mix in assay buffer (final concentration, 0.1 nM pyruvate kinase, 50 mM imidazole pH 7.2, 0.05% BSA, 4° C.) was added. Microtiter plates were incubated at r.t. for 1 hour and 2 uL of luciferase detection mix (Kinase-Glo from Promega, Madison, Wis., USA) at 4° C. protected from light, was added and luminescence was read with a ViewLux (Perkin Elmer, Waltham, Mass., USA) using a 2 second exposure/plate (with 2× binning). The final concentration of DMSO was 0.5% and found not to affect the assay signal.
Data was normalized for AC50 values to control columns containing uninhibited enzyme (n), and AC100 inhibition (i) according the following equation: Activation (%)=[(c−n)/(n−i)]*100 where c=compound, n=DMSO neutral, i=no enzyme control. A % activity of 100% is approximately a 2-fold increase over basal assay signal (% Activation by FBP was variable but averaged 100%). Monitoring of activation was accomplished using enzyme at 3× the final concentration.
All compounds were screened using a qHTS approach, where compounds are assayed using at least seven concentrations to generate concentration-response curves for every compounds. Briefly, qHTS uses an inter-plate dilution method where the first plate contains the highest concentration of a set of compounds in DMSO, while subsequent plates contain the same compounds in the same well locations, but at successive lower concentrations. Using the protocol outlined above, the rate was calculated as a plate throughput of 18 plates/hr or approximately 7 samples/sec on the Kalypsys robotic system which means that a 7 point CRC was obtained every second on the robotic system.

Sequence of hPK, M2 (P14618 whole entry): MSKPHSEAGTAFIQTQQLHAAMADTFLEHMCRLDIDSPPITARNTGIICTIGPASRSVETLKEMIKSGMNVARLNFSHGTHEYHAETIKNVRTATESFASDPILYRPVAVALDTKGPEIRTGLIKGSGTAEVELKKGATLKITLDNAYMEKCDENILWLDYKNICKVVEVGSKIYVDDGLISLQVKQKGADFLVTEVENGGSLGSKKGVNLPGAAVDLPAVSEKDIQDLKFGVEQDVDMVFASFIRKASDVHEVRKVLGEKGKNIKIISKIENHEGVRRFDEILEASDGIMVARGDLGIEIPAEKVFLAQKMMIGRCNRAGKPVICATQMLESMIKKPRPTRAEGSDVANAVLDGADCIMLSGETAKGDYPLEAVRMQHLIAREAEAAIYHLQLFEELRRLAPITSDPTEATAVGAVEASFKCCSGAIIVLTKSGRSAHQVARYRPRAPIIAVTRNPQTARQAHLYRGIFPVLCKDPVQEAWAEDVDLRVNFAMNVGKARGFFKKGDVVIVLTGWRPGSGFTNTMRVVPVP

| Compound | AC50 (Table 2) | activation at 57 µM (Table 2) | further results |
| --- | --- | --- | --- |
| Cc1ccc(NS(=O)(=O)c2ccc3c(c2)CC(=O)N3)cc1C [Compound 5, N-(3,4-dimethylphenyl)-2-oxoindoline-5-sulfonamide] | – | – | AC50 (Table 1): 14.5 µM; activation at 57 µM (Table 1): 130% |
| Cc1ccc(NS(=O)(=O)c2ccc3c(c2)CCCC(=O)N3)cc1C [Compound 6, N-(3,4-dimethylphenyl)-2-oxo-2,3,4,5-tetrahydro-1H-benzo[b]azepine-7-sulfonamide] | – | – | AC50 (Table 1): 18 µM; activation at 57 µM (Table 1): 66% |
| Cc1ccc(NS(=O)(=O)c2ccc3c(c2)NC(=O)CO3)cc1C [Compound 7, N-(3,4-dimethylphenyl)-3-oxo-3,4-dihydro-2H-benzo[b][1,4]oxazine-6-sulfonamide] | – | – | AC50 (Table 1): 20 µM; activation at 57 µM (Table 1): 93% |
| Cc1ccc(NS(=O)(=O)c2ccc3c(c2)N(C)C(=O)CO3)cc1C [Compound 8, N-(3,4-dimethylphenyl)-4-methyl-3-oxo-3,4-dihydro-2H-benzo[b][1,4]oxazine-6-sulfonamide] | – | – | AC50 (Table 1): 0.92 µM; activation at 57 µM (Table 1): 120% |
| Cc1ccc(NS(=O)(=O)c2ccc3[nH]c(=O)[nH]c3c2)cc1C [Compound 9, N-(3,4-dimethylphenyl)-2-oxo-2,3-dihydro-1H-benzo[d]imidazole-5-sulfonamide] | – | – | AC50 (Table 1): 21 µM; activation at 57 µM (Table 1): 59% |
| Cc1ccc(NS(=O)(=O)c2ccc3c(c2)n(C)c(=O)n3C)cc1C [Compound 10, N-(3,4-dimethylphenyl)-1,3-dimethyl-2-oxo-2,3-dihydro-1H-benzo[d]imidazole-5-sulfonamide] | – | – | AC50 (Table 1): 1.8 µM; activation at 57 µM (Table 1): 100% |
| CC(=O)N1CCc2cc(S(=O)(=O)Nc3ccc(C)c(C)c3)ccc21 [Compound 11, 1-acetyl-N-(3,4-dimethylphenyl)indoline-5-sulfonamide] | – | – | AC50 (Table 1): 1.8 µM; activation at 57 µM (Table 1): 65% |
| Cc1ccc(NS(=O)(=O)c2ccc3c(ccn3C)c2)cc1C [Compound 12, N-(3,4-dimethylphenyl)-1-methyl-1H-indole-5-sulfonamide] | – | – | AC50 (Table 1): 20 µM; activation at 57 µM (Table 1): 40% |
| O=C1CCc2cc(S(=O)(=O)Nc3cccc(Cl)c3)ccc2N1 [Compound 13, N-(3-chlorophenyl)-2-oxo-1,2,3,4-tetrahydroquinoline-6-sulfonamide] | 0.65 µM | 100% | – |
| Cc1cccc(NS(=O)(=O)c2ccc3c(c2)CCC(=O)N3)c1 [Compound 14, 2-oxo-N-m-tolyl-1,2,3,4-tetrahydroquinoline-6-sulfonamide] | 1.2 µM | 99% | – |
| COc1cccc(NS(=O)(=O)c2ccc3c(c2)CCC(=O)N3)c1 [Compound 15, N-(3-methoxyphenyl)-2-oxo-1,2,3,4-tetrahydroquinoline-6-sulfonamide] | 3.2 µM | 91% | – |
| O=C1CCc2cc(S(=O)(=O)Nc3cccc(F)c3)ccc2N1 [Compound 16, N-(3-fluorophenyl)-2-oxo-1,2,3,4-tetrahydroquinoline-6-sulfonamide] | 1.8 µM | 93% | – |
| O=C1CCc2cc(S(=O)(=O)Nc3cccc(C(F)(F)F)c3)ccc2N1 [Compound 17, 2-oxo-N-(3-(trifluoromethyl)phenyl)-1,2,3,4-tetrahydroquinoline-6-sulfonamide] | 13 µM | 96% | – |
| O=C1CCc2cc(S(=O)(=O)Nc3cccc(-c4ccccc4)c3)ccc2N1 [Compound 18, N-(biphenyl-3-yl)-2-oxo-1,2,3,4-tetrahydroquinoline-6-sulfonamide] | 14 µM | 13% | – |
| O=C1CCc2cc(S(=O)(=O)Nc3cccnc3)ccc2N1 [Compound 19, 2-oxo-N-(pyridin-3-yl)-1,2,3,4-tetrahydroquinoline-6-sulfonamide] | 23 µM | 36% | – |
| O=C1CCc2cc(S(=O)(=O)Nc3ccc(Cl)cc3)ccc2N1 [Compound 20, N-(4-chlorophenyl)-2-oxo-1,2,3,4-tetrahydroquinoline-6-sulfonamide] | 3.2 µM | 94% | – |

| Compound | AC50 (Table 2) | activation at 57 µM (Table 2) | further results |
| --- | --- | --- | --- |
| Cc1ccc(NS(=O)(=O)c2ccc3c(c2)CCC(=O)N3)cc1 [Compound 21, 2-oxo-N-p-tolyl-1,2,3,4-tetrahydroquinoline-6-sulfonamide] | 4.1 µM | 110% | – |
| COc1ccc(NS(=O)(=O)c2ccc3c(c2)CCC(=O)N3)cc1 [Compound 22, N-(4-methoxyphenyl)-2-oxo-1,2,3,4-tetrahydroquinoline-6-sulfonamide] | 36 µM | 47% | – |
| O=C1CCc2cc(S(=O)(=O)Nc3ccc(F)cc3)ccc2N1 [Compound 23, N-(4-fluorophenyl)-2-oxo-1,2,3,4-tetrahydroquinoline-6-sulfonamide] | 10 µM | 99% | – |
| Cc1ccccc1NS(=O)(=O)c1ccc2c(c1)CCC(=O)N2 [Compound 24, 2-oxo-N-o-tolyl-1,2,3,4-tetrahydroquinoline-6-sulfonamide] | 3.9 µM | 96% | – |
| COc1ccccc1NS(=O)(=O)c1ccc2c(c1)CCC(=O)N2 [Compound 25, N-(2-methoxyphenyl)-2-oxo-1,2,3,4-tetrahydroquinoline-6-sulfonamide] | 21 µM | 60% | – |
| O=C1CCc2cc(S(=O)(=O)Nc3ccccc3F)ccc2N1 [Compound 26, N-(2-fluorophenyl)-2-oxo-1,2,3,4-tetrahydroquinoline-6-sulfonamide] | 7.3 µM | 85% | – |
| O=C1CCc2cc(S(=O)(=O)Nc3ccc4ccccc4c3)ccc2N1 [Compound 27, N-(naphthalen-2-yl)-2-oxo-1,2,3,4-tetrahydroquinoline-6-sulfonamide] | 2.9 µM | 87% | – |
| O=C1CCc2cc(S(=O)(=O)Nc3cccc4ccccc34)ccc2N1 [Compound 28, N-(naphthalen-1-yl)-2-oxo-1,2,3,4-tetrahydroquinoline-6-sulfonamide] | 10 µM | 101% | – |
| O=C1CCc2cc(S(=O)(=O)Nc3ccc4c(c3)OCCO4)ccc2N1 [Compound 29, N-(2,3-dihydrobenzo[b][1,4]dioxin-6-yl)-2-oxo-1,2,3,4-tetrahydroquinoline-6-sulfonamide] | 16 µM | 86% | – |
| O=C1CCc2cc(S(=O)(=O)NCc3ccccc3)ccc2N1 [Compound 30, N-benzyl-2-oxo-1,2,3,4-tetrahydroquinoline-6-sulfonamide] | 14 µM | 25% | – |
| Cc1ccc(NS(=O)(=O)c2cc3c(cc2F)NC(=O)CC3)cc1C [Compound 31, N-(3,4-dimethylphenyl)-7-fluoro-2-oxo-1,2,3,4-tetrahydroquinoline-6-sulfonamide] | – | – | AC50 (Table 3): 0.92 µM; activation at 57 µM (Table 3): 115% |
| Cc1ccc(NS(=O)(=O)c2cc3c(cc2N(C)C)NC(=O)CC3)cc1C [Compound 32, 7-(dimethylamino)-N-(3,4-dimethylphenyl)-2-oxo-1,2,3,4-tetrahydroquinoline-6-sulfonamide] | – | – | AC50 (Table 3): 0.52 µM; activation at 57 µM (Table 3): 106% |
| CNc1cc2c(cc1S(=O)(=O)Nc1ccc(C)c(C)c1)CCC(=O)N2 [Compound 33, N-(3,4-dimethylphenyl)-7-(methylamino)-2-oxo-1,2,3,4-tetrahydroquinoline-6-sulfonamide] | – | – | AC50 (Table 3): 0.16 µM; activation at 57 µM (Table 3): 53% |
| Cc1ccc(NS(=O)(=O)c2cc3c(cc2N2CCCCC2)NC(=O)CC3)cc1C [Compound 34, N-(3,4-dimethylphenyl)-2-oxo-7-(piperidin-1-yl)-1,2,3,4-tetrahydroquinoline-6-sulfonamide] | – | – | AC50 (Table 3): 15 µM; activation at 57 µM (Table 3): 57% |
| Cc1ccc(NS(=O)(=O)c2cc3c(cc2Cl)CCC(=O)N3)cc1C [Compound 35, 6-chloro-N-(3,4-dimethylphenyl)-2-oxo-1,2,3,4-tetrahydroquinoline-7-sulfonamide] | – | – | AC50 (Table 3): 0.26 µM; activation at 57 µM (Table 3): 104% |
| Cc1ccc(NS(=O)(=O)c2cc3c(cc2N(C)C)CCC(=O)N3)cc1C [Compound 36, 6-(dimethylamino)-N-(3,4-dimethylphenyl)-2-oxo-1,2,3,4-tetrahydroquinoline-7-sulfonamide] | – | – | AC50 (Table 3): 0.46 µM; activation at 57 µM (Table 3): 110% |
